From patent publication US20110015206A1, “METHOD OF STABILIZING LIPID-RICH PLAQUE AND METHOD OF PREVENTING RUPTURE THEREOF” (KOWA CO., LTD., priority 2003, published 2011)

Key:
Type in all cases: in vivo
[1] = tested on: ApoE knockout mice; test: Macrophage immunohistochemical staining (anti-CD11b antibody) of aortic sinus plaques; conditions: male ApoE knockout mice, 100 mg/kg orally twice a day for 12 weeks; compared with control group
Procedure: (§1) Home breeding male ApoE knockout mice, (C57BL/6J-ApoE<tmlUnc>, Jackson Labo™) were bred under common condition, 8 weeks old, were used for test.
(§2) The compound 1 (Example 32, WO98/54153) and control drug, CI-1011 (Example 5, WO 94/26702), were synthesized according to methods described in each publication. The compound 1 and CI-1011 were dissolved (the compound 1) or suspended (CI-1011) in aqueous solution of 0.5% methylcellulose (MC). The solution or suspension was prepared to be a dose of 100 mg/kg and a volume for administration of 0.1 mL/10 g body weight. The control group (no drug administered group) received the solvent, aqueous solution of 0.5% methylcellulose (MC). […]
(§3) After collecting the blood, animals were undergone thoracotomy and 20-G injection needle was punctured into the cardiac apex. […] Using the specimens of Victoria blue-hematoxylin and eosin staining, the internal elastic layer was specified by observation of optical microscope, and the cross-sectional area of the plaques was analyzed (Win ROOF, Mitsuya Shoji K.K.). Similarly, the area of macrophages was measured by using the specimens of macrophage immunohistochemical staining, and a ratio in total area of the plaques (the occupancy rate of macrophages) was calculated. […]

[2] = tested on: ApoE knockout mice; test: Azan staining of aortic sinus plaques; conditions: male ApoE knockout mice, 100 mg/kg orally twice a day for 12 weeks; compared with control group
Procedure: as §1, §2, §3

[3] = tested on: ApoE knockout mice; test: Cross-sectional area of the plaques in aortic sinus, Victoria blue-hematoxylin and eosin staining; conditions: male ApoE knockout mice, 100 mg/kg orally twice a day for 12 weeks, mean±standard error, control group 0.23±0.03
Procedure: as §1, §2, §3

[4] = tested on: ApoE knockout mice; test: Plasma total cholesterol level in ApoE knockout mice with primary hyperlipidemia; conditions: male ApoE knockout mice, 100 mg/kg orally twice a day for 12 weeks; mean±standard error; control group 641.8±23.0
Procedure: as §1
The compound 1 (Example 32, WO98/54153) and control drug, CI-1011 (Example 5, WO 94/26702), were synthesized according to methods described in each publication. The compound 1 and CI-1011 were dissolved (the compound 1) or suspended (CI-1011) in aqueous solution of 0.5% methylcellulose (MC). The solution or suspension was prepared to be a dose of 100 mg/kg and a volume for administration of 0.1 mL/10 g body weight. The control group (no drug administered group) received the solvent, aqueous solution of 0.5% methylcellulose (MC). Prepared drug solution and suspension were administered twice a day, orally, for continuing to 12 weeks (up to 20 weeks old) (total 3 groups, each 15 animal).
After ending the final administration, mice were fasted. In the next morning, mice were laparotomized under pentobarbital sodium anesthesia to expose abdominal vein and collected blood sample 1 mL. The collected blood was centrifuged at 3000 rpm for 15 minutes to collect the plasma. Plasma total cholesterol level was assayed by using cholesterol E-test Wako (cholesterol oxidase DAOS method).
Obtained results are shown in mean±standard error. Test of significance between the control group and the drug-administered group is performed by Dunnett's test.

[5] = tested on: ApoE knockout mice; test: Sirius Red staining of collagen in aortic sinus plaques; conditions: male ApoE knockout mice, 100 mg/kg orally twice a day for 12 weeks; compared with control group
Procedure: as §1, §2, §3

CC(C)c1cc(C(C)C)c(CC(=O)NS(=O)(=O)Oc2c(C(C)C)cccc2C(C)C)c(C(C)C)c1 [CI-1011, avasimibe]
macrophage immunohistochemical staining (observation) [1]: the macrophages were observed abundantly in whole plaques
Azan staining, composition of the plaques (observation) [2]: the plaques consisted largely of red stained macrophage and the blue stained extracellular matrix was scanty
cross-sectional area of the plaques [3]: 0.09±0.01 mm^2
plasma total cholesterol level [4]: 360.3 ± 19.4 mg/dL
Sirius Red staining, collagen fibers (observation) [5]: smaller numbers of collagen fibers were observed as compared with the control group

CSc1cc(C)nc(SC)c1NC(=O)CN1CCN(CCSc2nc3ccccc3[nH]2)CC1 [compound 1, 2-[4-[2-(benzimidazol-2-ylthio)ethyl]piperazin-1-yl]-N-[2,4-bis(methylthio)-6-methyl-3-pyridyl]acetamide]
macrophage immunohistochemical staining (observation) [1]: the macrophages were occasionally observed
Azan staining, composition of the plaques (observation) [2]: the plaques consisted of small area of cellular components and large numbers of surrounding extracellular matrix
cross-sectional area of the plaques [3]: 0.22±0.03 mm^2
plasma total cholesterol level [4]: 535.0 ± 22.8 mg/dL
Sirius Red staining, collagen fibers (observation) [5]: compactly arranged collagen fibers were observed in whole plaques
